# According to patent US10548898B2, “Quinazoline compounds” (Gilead Sciences, Inc., priority 2014, dated 2020):
# Where two headings read alike, the source gives them in different places.
# How the values were obtained:
# Type in all cases: cell-based
# hERG channels = molecular target: T1, hERG channels (Homo sapiens, UniProt Q12809); assay: hERG assay, whole cell recordings in CHO cell line stably expressing hERG channels; details: CHO cells, whole cell patch clamp; greater than values indicate the maximum achievable concentration in the assay
# T1 construct: host or cells: CHO cell line stably expressing hERG
# Experimental: AVIVA's CHO cell line, which stably expresses hERG channels, was used for the study. Cells were cultured in DMEM/F12 containing 10% FBS, 1% penicillin/streptomycin and 500 μg/ml G418. Before testing, cells were harvested using Accumax (Innovative Cell Technologies).
# External Solution: 2 mM CaCl2; 2 mM MgCl2; 4 mM KCl; 150 mM NaCl; 10 mM Glucose; 10 mM HEPES; 305-315 mOsm; pH 7.4 (adjusted with 5M NaOH.)
# Internal Solution: 140 mM KCl; 10 mM MgCl2; 6 mM EGTA; 5 mM HEPES-Na; 5 mM ATP-Mg; 295-305 mOsm; pH 7.25 (adjusted with 1M KOH).
# Whole cell recordings were performed using PX 7000A (Axon Instruments) with AVIVA's SealChip™ technology. Cells were voltage clamped at a holding potential of −80 mV. The hERG current was then activated by a depolarizing step to −50 mV for 300 ms. This first step at −50 mV was used as a baseline for measuring peak amplitude of the tail current. Next, a voltage step to +20 mV was applied for 5 s to activate the channels. Finally, a step back to −50 mV for 5 s removed activation and the deactivating tail current was recorded.
# All test articles were prepared from 10 mM DMSO stock solutions. Solutions were mixed by sonication for 20 min, followed by vigorous vortexing. Prior to testing, compounds were diluted to test concentrations in glass vials using External Solution. Dilutions were prepared no longer than 20 min prior to use.
# After achieving whole cell configuration, cells were monitored for 90 s to assess stability and then washed with External Solution for 66 s. The voltage protocol was then applied to the cells every 12 s throughout the procedure. Only stable cells with recording parameters above threshold were allowed to enter the drug addition procedure.
# External solution containing 0.1% DMSO (vehicle) was applied to the cells to establish a baseline. After allowing the current to stabilize for 3 to 10 min, test articles were applied. Test article solutions were added to cells in 4 separate additions. Cells were kept in test solution until effect of the test article reached steady state, to a maximum of 12 min. Next, 1 μM cisapride (positive control) was added. Finally, washout with External Solution was performed until the recovery current reached steady state.
# Data analysis was performed using DataXpress (Axon Instruments), Clampfit (Axon Instruments) and Origin (OriginLab Corporation) software. The greater than values in Table 5 indicate the maximum achievable concentration in the assay (e.g., compounds achieving their solubility limit).
# [1] = tested on: HIV-1 recombinant strain encoding reverse transcriptase mutation E138K/M184V; assay: Resistance profile against HIV-1 RT mutants in MT-2 cells, E138K/M184V; details: ratio of mean EC50 mutant/WT virus
# Experimental: Compounds were tested for antiviral activity against a panel of NNRTI resistant viruses. A panel of 8 clonal site-directed mutant viruses representing the major resistance development pathways against rilpivirine (“RPV”), efavirenz (“EFV”), and nevirapine (“NVP”), containing both single and double mutations within HIV-1 reverse transcriptase was employed. Further details and background can be found in Janssen et al. J. Med. Chem, 2005, 48, 1901-1909; Das et al., Proc. Nat. Acad. Sci., 2008, vol., 105, no. 5, 1466-1471; and Kuroda et al., Nature Chemistry, 2013, DOI: 10.1038/NCHEM. 1559. […] HIV-1 recombinant strains encoding reverse transcriptase mutations K103N, Y181C, Y188L, G190A, K103N/Y181C, L1001/Y181C, E138K or E138KIM 184V were constructed by site-directed mutagenesis. Wild-type and mutant viruses were prepared by transfecting infectious proviral HXB2-based cDNA clones into MT-2 cells and harvesting the cell supernatants. MT-2 cells were infected with wild-type and mutant HIV-1 strains at a multiplicity of infection (MOI) of 0.005 by gentle mixing for 3 hours at 37° C. and then added at a density of 16,667 cells per well in 50 μL complete RPMI cell culture media (containing 10% fetal bovine serum (FBS) and 10% penicillin-streptomycin) to 96-well plates containing 50 μL of a 3-fold serial dilution of test compounds in RPMI medium. After 5 days of incubation at 37° C. in a humidified incubator in the presence of 5% CO2. 100 μL of Cell Titer-Glo™ Reagent (Promega Biosciences, Inc., Madison, Wis.) was added to each well and the relative light units (RLU) measured on an Envision plate reader. […] The EC50 value was defined as the compound concentration inducing a 50% decrease in virus replication. […]
# [formula] where y=virus inhibition, x=drug concentration, M=maximum inhibition, H=minimum inhibition and n=Hill coefficient, EC50 values (mean±standard deviation) were calculated from at least three independent experiments performed in triplicate. The level of resistance was calculated as a ratio of the mean EC50 for each mutant/WT virus. […]
# [2] = tested on: HIV-1 recombinant strain encoding reverse transcriptase mutation L100I/Y181C; assay: Resistance profile against HIV-1 RT mutants in MT-2 cells, L100I/Y181C; details: ratio of mean EC50 mutant/WT virus
# Experimental: (§1) Compounds were tested for antiviral activity against a panel of NNRTI resistant viruses. A panel of 8 clonal site-directed mutant viruses representing the major resistance development pathways against rilpivirine (“RPV”), efavirenz (“EFV”), and nevirapine (“NVP”), containing both single and double mutations within HIV-1 reverse transcriptase was employed. Further details and background can be found in Janssen et al. J. Med. Chem, 2005, 48, 1901-1909; Das et al., Proc. Nat. Acad. Sci., 2008, vol., 105, no. 5, 1466-1471; and Kuroda et al., Nature Chemistry, 2013, DOI: 10.1038/NCHEM. 1559. […] HIV-1 recombinant strains encoding reverse transcriptase mutations K103N, Y181C, Y188L, G190A, K103N/Y181C, L1001/Y181C, E138K or E138KIM 184V were constructed by site-directed mutagenesis. Wild-type and mutant viruses were prepared by transfecting infectious proviral HXB2-based cDNA clones into MT-2 cells and harvesting the cell supernatants. MT-2 cells were infected with wild-type and mutant HIV-1 strains at a multiplicity of infection (MOI) of 0.005 by gentle mixing for 3 hours at 37° C. and then added at a density of 16,667 cells per well in 50 μL complete RPMI cell culture media (containing 10% fetal bovine serum (FBS) and 10% penicillin-streptomycin) to 96-well plates containing 50 μL of a 3-fold serial dilution of test compounds in RPMI medium. After 5 days of incubation at 37° C. in a humidified incubator in the presence of 5% CO2. 100 μL of Cell Titer-Glo™ Reagent (Promega Biosciences, Inc., Madison, Wis.) was added to each well and the relative light units (RLU) measured on an Envision plate reader. […] The EC50 value was defined as the compound concentration inducing a 50% decrease in virus replication. Data analysis for the antiviral activity observed in MT-2 cells was performed using XL-Fit™ software (IDBS, Guildford, Surrey, UK) to calculate EC50 from an 8-point dose-response curve using the following equation:
# (§2) [formula] where y=virus inhibition, x=drug concentration, M=maximum inhibition, H=minimum inhibition and n=Hill coefficient, EC50 values (mean±standard deviation) were calculated from at least three independent experiments performed in triplicate. The level of resistance was calculated as a ratio of the mean EC50 for each mutant/WT virus. Results are disclosed in FIG. 1 and in Tables 3 and 4 below.
# HIV-1 HBX2 (wild type) = assay: High throughput cytopathic effect assay in MT-4 cells, wild type HIV-1
# Procedure, shortened: (§3)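 MT-4 cells infected 1 h at 37 °C at MOI 0.0005, then plated onto ten-point half-log compound dilutions and incubated 5 days. Cell viability read by CellTiter-Glo luminescence, normalized to AZT and DMSO controls as % CPE protection; EC50 from four-parameter fit.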
# [3] = tested on: HIV-1 recombinant strain encoding reverse transcriptase mutation Y188L; assay: Resistance profile against HIV-1 RT mutants in MT-2 cells, Y188L; details: ratio of mean EC50 mutant/WT virus
# Experimental: as §1, §2
# [4] = tested on: HIV-1 reverse transcriptase mutant Y181C; assay: High throughput cytopathic effect assay in MT-4 cells, Y181C mutant; details: for EC50: Human immunodeficiency virus 1, MT4, 120 h, read-out: MT4 EC50 (nM) against Y181C; for FC against mutant Y181C: fold change of MT4 EC50 versus w.t. assay 2
# Procedure, shortened: as §3
# [5] = tested on: HIV-1 recombinant strain encoding reverse transcriptase mutation G190A; assay: Resistance profile against HIV-1 RT mutants in MT-2 cells, G190A; details: ratio of mean EC50 mutant/WT virus
# Experimental: as §1, §2
# [6] = tested on: HIV-1 recombinant strain encoding reverse transcriptase mutation Y181C; assay: Resistance profile against HIV-1 RT mutants in MT-2 cells, Y181C; details: ratio of mean EC50 mutant/WT virus
# Experimental: as §1, §2
# [7] = tested on: HIV-1 reverse transcriptase mutant K103N; assay: High throughput cytopathic effect assay in MT-4 cells, K103N mutant; details: for EC50: Human immunodeficiency virus 1, MT4, 120 h, read-out: MT4 EC50 (nM) against K103N; for FC against mutant K103N: fold change of MT4 EC50 versus w.t. assay 2
# Procedure, shortened: as §3
# [8] = tested on: HIV-1 recombinant strain encoding reverse transcriptase mutation K103N/Y181C; assay: Resistance profile against HIV-1 RT mutants in MT-2 cells, K103N/Y181C; details: ratio of mean EC50 mutant/WT virus
# Experimental: as §1, §2
# [9] = tested on: HIV-1 recombinant strain encoding reverse transcriptase mutation K103N; assay: Resistance profile against HIV-1 RT mutants in MT-2 cells, K103N; details: ratio of mean EC50 mutant/WT virus
# Experimental: as §1, §2
# [10] = Human immunodeficiency virus 1, MT4, 120 h, MT-4 cells, 5 days, cytopathic effect, Cell TiterGlo, read-out: MT4 EC50 (nM) against w.t.
# [11] = Human immunodeficiency virus 1, MT4, read-out: MT4 EC50 (nM) against w.t. assay 2
# T1 sequence (Q12809 whole entry): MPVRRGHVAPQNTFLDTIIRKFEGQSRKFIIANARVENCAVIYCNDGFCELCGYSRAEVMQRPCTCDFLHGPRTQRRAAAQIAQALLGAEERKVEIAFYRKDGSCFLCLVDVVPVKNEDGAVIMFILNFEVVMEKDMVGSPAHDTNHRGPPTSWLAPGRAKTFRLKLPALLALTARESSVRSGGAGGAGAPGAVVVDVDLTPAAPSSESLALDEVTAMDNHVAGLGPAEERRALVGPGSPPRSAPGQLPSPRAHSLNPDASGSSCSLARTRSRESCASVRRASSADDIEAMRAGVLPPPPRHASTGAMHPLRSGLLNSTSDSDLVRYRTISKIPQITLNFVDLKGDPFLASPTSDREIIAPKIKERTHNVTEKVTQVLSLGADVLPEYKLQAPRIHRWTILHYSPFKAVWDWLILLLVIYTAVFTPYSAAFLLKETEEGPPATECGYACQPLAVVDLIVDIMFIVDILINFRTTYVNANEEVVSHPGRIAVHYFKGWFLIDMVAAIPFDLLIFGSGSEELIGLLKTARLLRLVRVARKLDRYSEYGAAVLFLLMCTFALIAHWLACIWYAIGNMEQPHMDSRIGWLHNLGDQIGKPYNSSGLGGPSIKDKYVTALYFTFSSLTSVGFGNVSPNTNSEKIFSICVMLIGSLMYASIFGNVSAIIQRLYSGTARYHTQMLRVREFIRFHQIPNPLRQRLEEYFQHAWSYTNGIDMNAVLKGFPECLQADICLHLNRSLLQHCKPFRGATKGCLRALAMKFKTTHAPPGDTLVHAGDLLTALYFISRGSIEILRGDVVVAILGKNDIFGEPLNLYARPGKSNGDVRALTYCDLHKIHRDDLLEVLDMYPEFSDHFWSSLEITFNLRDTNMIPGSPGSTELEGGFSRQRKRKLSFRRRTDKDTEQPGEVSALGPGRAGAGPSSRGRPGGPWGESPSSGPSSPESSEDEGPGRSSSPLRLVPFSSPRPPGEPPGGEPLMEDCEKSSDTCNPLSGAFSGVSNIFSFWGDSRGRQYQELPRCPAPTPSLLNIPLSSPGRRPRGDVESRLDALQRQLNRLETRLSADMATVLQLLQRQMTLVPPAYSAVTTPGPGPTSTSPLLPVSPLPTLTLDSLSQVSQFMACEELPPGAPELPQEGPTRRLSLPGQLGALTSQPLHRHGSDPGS
Compound,hERG (hERG channels) [µM],Biology resistance panel-low throughput fold change (FC) E138K/M184V [1],Biology resistance panel-low throughput fold change (FC) L100I/Y181C [2],EC50 (HIV-1 HBX2 (wild type); [10]) [nM],EC50 (HIV-1 HBX2 (wild type); [11]) [nM],Biology resistance panel-low throughput fold change (FC) Y188L [3],EC50 [4] [nM],FC against mutant Y181C [4],Biology resistance panel-low throughput fold change (FC) G190A [5],Biology resistance panel-low throughput fold change (FC) Y181C [6],EC50 [7] [nM],FC against mutant K103N [7],Biology resistance panel-low throughput fold change (FC) K103N/Y181C [8],Biology resistance panel-low throughput fold change (FC) K103N [9]
"Cc1cc(/C=C/C#N)cc(C)c1-c1cccc2c(N)nc(Nc3ccc(C#N)cc3)nc12 [Compound 2, (E)-4-((4-Amino-8-(4-(2-cyanovinyl)-2,6-dimethylphenyl)quinazolin-2-yl)amino)benzonitrile]",>1,5.0,1.6,3.7,3.6,10.0,10.9,3.0,1.6,4.0,4,1.1,4.1,0.9
"Cc1cc(/C=C/C#N)cc(C)c1Nc1ccnc(Nc2ccc(C#N)cc2)n1 [Rilpivirine, reference compound]",0.5,3.0,18.1,0.9,1.3,22.8,3.8,3.1,0.8,4.6,1.5,1.2,7.7,1.0
